Experimental data from ChEMBL document CHEMBL5620359, “Discovery of 2,5-disubstituted furan derivatives featuring a benzamide motif for overcoming P-glycoprotein mediated multidrug resistance in MCF-7/ADR cell” (Eur J Med Chem, 2023).

Legend:
Type in all cases: organism-based
Conditions in all cases: in vivo, 336 h, time 14 day
[1] = Toxicity in nude BALB/c mouse xenografted with human MCF7ADR cells assessed as reduction in spleen volume at 3 mg/kg, ip for 14 days administered every 2 days by H and E staining based analysis
[2] = Toxicity in nude BALB/c mouse xenografted with human MCF7ADR cells assessed as increase in nuclear density in liver at 3 mg/kg, ip for 14 days administered every 2 days by H and E staining based analysis
[3] = Toxicity in nude BALB/c mouse xenografted with human MCF7ADR cells assessed as pathological change in spleen at 3 mg/kg, ip for 14 days administered every 2 days by H and E staining based analysis
[4] = Toxicity in nude BALB/c mouse xenografted with human MCF7ADR cells assessed as body weight loss at 3 mg/kg, ip for 14 days administered every 2 days
[5] = Toxicity in nude BALB/c mouse xenografted with human MCF7ADR cells assessed as hyperplasia in spleen at 3 mg/kg, ip for 14 days administered every 2 days by H and E staining based analysis
[6] = Toxicity in nude BALB/c mouse xenografted with human MCF7ADR cells assessed as increase in nuclear density in kidney at 3 mg/kg, ip for 14 days administered every 2 days by H and E staining based analysis
[7] = Toxicity in nude BALB/c mouse xenografted with human MCF7ADR cells assessed as reduction in liver volume at 3 mg/kg, ip for 14 days administered every 2 days by H and E staining based analysis

Measured: Activity

COc1cccc2c1C(=O)c1c(O)c3c(c(O)c1C2=O)C[C@@](O)(C(=O)CO)C[C@@H]3O[C@H]1C[C@H](N)[C@H](O)[C@H](C)O1 [DOXORUBICIN]
Toxic: all assays above
